Measurements from patent USRE47302E1 (ONYX THERAPEUTICS INC., priority 2013, dated 2019).
≈ marks a conversion by molar mass, not a printed value. Read-outs that look alike come from different tables or passages of the source.

Experiments:
[1] = target: T1, proteasome subunit β5 (beta5) (Homo sapiens, UniProt P28074); assay: Proteasome active-site ELISA (ProCISE), beta5, MOLT-4 lysate; format: biochemical
T1 construct: Lysate from the human acute lymphoblastic leukemia cell line, MOLT-4; endogenous in cells; host or cells: MOLT-4
Procedure: (§1) Test compounds were serially diluted in DMSO at 100× concentration, then diluted to 10× in aqueous hypotonic lysis buffer. Lysate from the human acute lymphoblastic leukemia cell line, MOLT-4, was treated for 1 hour at 25° C. with compound at a final 1× concentration. […] Following, lysate was denatured in guanidine hydrochloride, and subunits bound to probe were isolated with streptavidin-conjugated sepharose beads. Individual subunits (e.g., β5, LMP7, LMP2, MECL-1) were probed with subunit-specific primary antibodies, followed by HRP-conjugated secondary antibodies. A chemiluminescent substrate was used to generate signal associated with HRP binding, which was detected on a plate reader. Luminescent signal was normalized to protein content, then, percent activity calculated relative to DMSO-treated controls to generate IC50 curves.

[2] = target: T2, immunoproteasome subunit LMP7 (Homo sapiens, UniProt P28062); assay: Proteasome active-site ELISA (ProCISE), LMP7, MOLT-4 lysate; format: biochemical
T2 construct: Lysate from the human acute lymphoblastic leukemia cell line, MOLT-4; endogenous in cells; host or cells: MOLT-4
Procedure: as §1

Solubility pH 7 = details: for solubility: pH 7, aqueous buffer
[3] = MOLT4 lysate, 1 h continuous treatment, 25° C.
[4] = MOLT4 lysate, human, 1 h continuous treatment, 25° C.

| Compound | IC50 ([1]; read-out: ProCISE beta5 MOLT4 lysate Hu 1 h CONT: IC50, MOLT4 lysate, human, 1 h continuous treatment, 25° C.) [nM] | IC50 ([2]; read-out: ProCISE LMP7 MOLT4 lysate Hu 1 h CONT: IC50, 1 h continuous treatment, 25° C.) [nM] | Solubility pH 7 (μg/mL) (Solubility pH 7; pH 7) | IC50 [1] [nM] | IC50 [2, 3] [nM] | solubility (Solubility pH 7) [µg/mL] | IC50 [1, 4] [nM] |
| --- | --- | --- | --- | --- | --- | --- | --- |
| COc1ccc(C[C@H](NC(=O)[C@@H](C)NC(=O)[C@H]2CC[C@H](O)CC2)C(=O)N[C@@H](CC2CCCC2)C(=O)[C@@]2(C)CO2)cc1O [Compound C-1072, (1r,4R)-N-((R)-1-(((S)-1-(((S)-3-cyclopentyl-1-((R)-2-methyloxiran-2-yl)-1-oxopropan-2-yl)amino)-3-(3-hydroxy-4-methoxyphenyl)-1-oxopropan-2-yl)amino)-1-oxopropan-2-yl)-4-hydroxycyclohexanecarboxamide] | 3390 | 39.7 | 4742.65 |  |  |  |  |
| COc1ccc(C[C@H](NC(=O)[C@@H](C)NC(=O)[C@H]2CC[C@H](O)CC2)C(=O)N[C@@H](CC2CC=CC2)C(=O)[C@@]2(C)CO2)cc1 [Compound C-1074, (1r,4R)-N-((R)-1-(((S)-1-(((S)-3-(cyclopent-3-en-1-yl)-1-((R)-2-methyloxiran-2-yl)-1-oxopropan-2-yl)amino)-3-(4-methoxyphenyl)-1-oxopropan-2-yl)amino)-1-oxopropan-2-yl)-4-hydroxycyclohexanecarboxamide] |  |  |  | 778 | 26.2 | 1150 (≈ 2020 µM) |  |
| COc1ccc(C[C@H](NC(=O)[C@@H](C)NC(=O)[C@H]2CC[C@@H](O)C2)C(=O)N[C@@H](CC2CCCC2)C(=O)[C@@]2(C)CO2)cc1 [Compound C-1075, (1S,3R)-N-((R)-1-(((S)-1-(((S)-3-cyclopentyl-1-((R)-2-methyloxiran-2-yl)-1-oxopropan-2-yl)amino)-3-(4-methoxyphenyl)-1-oxopropan-2-yl)amino)-1-oxopropan-2-yl)-3-hydroxycyclopentanecarboxamide] |  |  |  |  | 92.1 | 1650 (≈ 2950 µM) | 788 |
| COc1ccc([C@@H](O)[C@H](NC(=O)[C@@H](C)NC(=O)[C@H]2CC[C@H](O)CC2)C(=O)N[C@@H](CC2CCCC2)C(=O)[C@@]2(C)CO2)cc1 [Compound C-1079, (1r,4R)-N-((R)-1-(((2S,3R)-1-(((S)-3-cyclopentyl-1-((R)-2-methyloxiran-2-yl)-1-oxopropan-2-yl)amino)-3-hydroxy-3-(4-methoxyphenyl)-1-oxopropan-2-yl)amino)-1-oxopropan-2-yl)-4-hydroxycyclohexanecarboxamide] |  |  |  |  | 34.6 | 2050 (≈ 3490 µM) | 2230 |
| COc1ccc([C@@H](O)[C@H](NC(=O)[C@H](C)NC(=O)CN2CCOCC2)C(=O)N[C@@H](CC2=CCCCC2)C(=O)[C@@]2(C)CO2)cc1 [Compound C-1082, (2S,3R)-N-((S)-3-(cyclohex-1-en-1-yl)-1-((R)-2-methyloxiran-2-yl)-1-oxopropan-2-yl)-3-hydroxy-3-(4-methoxyphenyl)-2-((S)-2-(2-morpholinoacetamido)propanamido)propanamide] |  |  |  |  | 86.6 | 6130 (≈ 10200 µM) | 3530 |
| COc1ccc([C@@H](O)[C@H](NC(=O)[C@H](C)NC(=O)CN2CCOCC2)C(=O)N[C@@H](CC2=CCCC2)C(=O)[C@@]2(C)CO2)cc1 [Compound C-1083, (2S,3R)-N-((S)-3-(cyclopent-1-en-1-yl)-1-((R)-2-methyloxiran-2-yl)-1-oxopropan-2-yl)-3-hydroxy-3-(4-methoxyphenyl)-2-((S)-2-(2-morpholinoacetamido)propanamido)propanamide] |  |  |  |  | 40.3 | 7070 (≈ 12100 µM) | 561 |
| COc1ccc(C[C@H](NC(=O)[C@H](C)NC(=O)CN2CCOCC2)C(=O)N[C@@H](CC2=CCCC2)C(=O)[C@@]2(C)CO2)cc1O [Compound C-1085, (S)-N-((S)-3-(cyclopent-1-en-1-yl)-1-((R)-2-methyloxiran-2-yl)-1-oxopropan-2-yl)-3-(3-hydroxy-4-methoxyphenyl)-2-((S)-2-(2-morpholinoacetamido)propanamido)propanamide] |  |  |  |  | 158 | 8190 (≈ 14000 µM) | 1840 |
| COc1ccc(C[C@H](NC(=O)[C@@H](C)NC(=O)[C@H]2CC[C@](C)(O)CC2)C(=O)N[C@@H](CC2=CCCC2)C(=O)[C@@]2(C)CO2)cc1 [Compound C-1087, (1r,4R)-N-((R)-1-(((S)-1-(((S)-3-(Cyclopent-1-en-1-yl)-1-((R)-2-methyloxiran-2-yl)-1-oxopropan-2-yl)amino)-3-(4-methoxyphenyl)-1-oxopropan-2-yl)amino)-1-oxopropan-2-yl)-4-hydroxy-4-methylcyclohexanecarboxamide] |  |  |  |  | 59.9 | 1130 (≈ 1930 µM) | 1750 |
| COc1ccc(C[C@H](NC(=O)[C@@H](C)NC(=O)[C@H]2CC[C@@](C)(O)CC2)C(=O)N[C@@H](CC2=CCCC2)C(=O)[C@@]2(C)CO2)cc1 [Compound C-1088, (1s,4S)-N-((R)-1-(((S)-1-(((S)-3-(cyclopent-1-en-1-yl)-1-((R)-2-methyloxiran-2-yl)-1-oxopropan-2-yl)amino)-3-(4-methoxyphenyl)-1-oxopropan-2-yl)amino)-1-oxopropan-2-yl)-4-hydroxy-4-methylcyclohexanecarboxamide] |  |  |  |  | 132 | 1410 (≈ 2420 µM) | 2250 |
| COc1ccc(C[C@H](NC(=O)[C@@H](C)NC(=O)[C@H]2CC[C@H](O)CC2)C(=O)N[C@@H](CC2=CCCCC2)C(=O)[C@@]2(C)CO2)cc1 [Compound C-1089, (1r,4R)-N-((R)-1-(((S)-1-(((S)-3-(cyclohex-1-en-1-yl)-1-((R)-2-methyloxiran-2-yl)-1-oxopropan-2-yl)amino)-3-(4-methoxyphenyl)-1-oxopropan-2-yl)amino)-1-oxopropan-2-yl)-4-hydroxycyclohexanecarboxamide] |  |  |  |  | 57.6 | 985 (≈ 1690 µM) | 8970 |
| COc1ccc(C[C@H](NC(=O)[C@@H](C)NC(=O)[C@H]2CC[C@H](O)CC2)C(=O)N[C@@H](CC2CCC2)C(=O)[C@@]2(C)CO2)cc1 [Compound C-1090, (1r,4R)-N-((R)-1-(((S)-1-(((S)-3-cyclobutyl-1-((R)-2-methyloxiran-2-yl)-1-oxopropan-2-yl)amino)-3-(4-methoxyphenyl)-1-oxopropan-2-yl)amino)-1-oxopropan-2-yl)-4-hydroxycyclohexanecarboxamide] |  |  |  |  | 262 | 979 (≈ 1760 µM) | 6630 |
| COc1ccc(C[C@H](NC(=O)[C@@H](CO)NC(=O)[C@H]2CC[C@H](O)CC2)C(=O)N[C@@H](CC2=CCCC2)C(=O)[C@@]2(C)CO2)cc1 [Compound C-1092, (1r,4R)-N-((R)-1-(((S)-1-(((S)-3-(cyclopent-1-en-1-yl)-1-((R)-2-methyloxiran-2-yl)-1-oxopropan-2-yl)amino)-3-(4-methoxyphenyl)-1-oxopropan-2-yl)amino)-3-hydroxy-1-oxopropan-2-yl)-4-hydroxycyclohexanecarboxamide] |  |  |  |  | 29.3 | 3070 (≈ 5240 µM) | 2040 |
| C[C@@H](NC(=O)[C@H]1CC[C@H](O)CC1)C(=O)N[C@@H](Cc1ccc(S(C)(=O)=O)cc1)C(=O)N[C@@H](CC1=CCCC1)C(=O)[C@@]1(C)CO1 [Compound C-1096, (1r,4R)-N-((R)-1-(((S)-1-(((S)-3-(cyclopent-1-en-1-yl)-1-((R)-2-methyloxiran-2-yl)-1-oxopropan-2-yl)amino)-3-(4-(methylsulfonyl)phenyl)-1-oxopropan-2-yl)amino)-1-oxopropan-2-yl)-4-hydroxycyclohexanecarboxamide] |  |  |  |  | 25.2 | 917 (≈ 1480 µM) | 868 |
